ChEMBL document CHEMBL4602694, “Suppression of Drug-Resistant Non-Small-Cell Lung Cancer with Inhibitors Targeting Minichromosomal Maintenance Protein” (J Med Chem, 2020)
Active and inactive are the calls of the source. No cut-off for these calls is given here.

Tests used:
[1] = target: DNA replication licensing factor MCM2 (Homo sapiens) (UniProt P49736); experiment: Induction of ubiquitination of MCM2 in human NCI-H1975 cells at 140 nM in presence of MG132 incubated for 48 hrs followed by MG132 addition and measured after 12 hrs by immunoblot analysis; assay type: cell-based
[2] = target: T1, DNA replication licensing factor MCM4 (Homo sapiens) (UniProt P33991); experiment: Induction of ubiquitination of MCM4 in human NCI-H1975 cells incubated for 48 hrs by immunoblot analysis (reference value: 1); assay type: cell-based
T1 sequence (whole entry): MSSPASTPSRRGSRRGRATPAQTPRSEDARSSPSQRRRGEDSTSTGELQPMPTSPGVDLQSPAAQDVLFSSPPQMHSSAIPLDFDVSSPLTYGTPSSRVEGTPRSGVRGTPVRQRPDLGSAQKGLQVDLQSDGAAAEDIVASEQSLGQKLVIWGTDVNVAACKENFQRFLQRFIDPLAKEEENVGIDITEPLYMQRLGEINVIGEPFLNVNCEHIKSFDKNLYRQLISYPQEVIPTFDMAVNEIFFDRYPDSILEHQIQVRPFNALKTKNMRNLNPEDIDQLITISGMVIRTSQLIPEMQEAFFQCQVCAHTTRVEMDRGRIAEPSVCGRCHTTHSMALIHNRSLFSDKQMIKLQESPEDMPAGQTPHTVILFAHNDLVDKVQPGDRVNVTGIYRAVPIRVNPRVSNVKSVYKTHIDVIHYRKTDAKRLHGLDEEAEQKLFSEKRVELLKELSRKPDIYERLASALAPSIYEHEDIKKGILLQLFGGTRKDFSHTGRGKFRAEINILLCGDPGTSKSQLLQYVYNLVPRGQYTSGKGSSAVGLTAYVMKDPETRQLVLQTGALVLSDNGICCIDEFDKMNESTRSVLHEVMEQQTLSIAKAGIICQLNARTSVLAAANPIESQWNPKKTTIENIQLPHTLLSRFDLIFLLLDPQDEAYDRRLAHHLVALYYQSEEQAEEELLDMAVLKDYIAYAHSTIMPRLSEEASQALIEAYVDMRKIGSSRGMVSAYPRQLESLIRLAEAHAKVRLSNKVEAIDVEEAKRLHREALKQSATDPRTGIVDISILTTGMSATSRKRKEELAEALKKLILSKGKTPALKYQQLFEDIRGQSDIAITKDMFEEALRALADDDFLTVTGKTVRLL

[3] = target: DNA replication licensing factor MCM7 (Homo sapiens) (UniProt P33993); experiment: Induction of ubiquitination of MCM7 in human NCI-H1975 cells in presence of MG132 incubated for 48 hrs followed by MG132 addition and measured after 12 hrs by immunoblot analysis (reference value: 1.6); assay type: cell-based
NCI-H1975 [4] = experiment: Induction of apoptosis in human NCI-H1975 cells xenografted in athymic nude BALB/c mouse at 1 or 4 mg/kg, ip administered for 4 weeks by hematoxylin and eosin staining based assay; assay type: functional, organism-based
[5] = Toxicity in athymic nude BALB/c mouse xenografted with human NCI-H1975 cells assessed as effect on serum aspartate transaminase at 1 or 4 mg/kg, ip administered for 4 weeks; assay type: organism-based; details: in vivo, 672 h
[6] = Antiproliferative activity against human CL1-5 cells assessed as reduction in cell viability incubated for 72 hrs by SRB assay; assay type: functional, cell-based; details: CL1-5, 72 h
NCI-H1975 [7] = experiment: Cell cycle arrest in human NCI-H1975 cells assessed as replication fork at 140 nM incubated for 48 hrs by DAPI staining based immunofluorescence microscopy (reference value: 176.8 +/- 8.7); assay type: functional
[8] = target: DNA replication licensing factor MCM2 (Homo sapiens) (UniProt P49736); experiment: Induction of ubiquitination of FLAG-tagged MCM2 in human NCI-H1975 cells incubated for 24 hrs by magnetic beads technique based immunoblot analysis; assay type: cell-based
[9] = target: T2, DNA replication licensing factor MCM6 (Homo sapiens) (UniProt Q14566); experiment: Induction of ubiquitination of MCM6 in human NCI-H1975 cells in presence of MG132 incubated for 48 hrs followed by MG132 addition and measured after 12 hrs by immunoblot analysis (reference value: 1.8); assay type: cell-based
T2 sequence (whole entry): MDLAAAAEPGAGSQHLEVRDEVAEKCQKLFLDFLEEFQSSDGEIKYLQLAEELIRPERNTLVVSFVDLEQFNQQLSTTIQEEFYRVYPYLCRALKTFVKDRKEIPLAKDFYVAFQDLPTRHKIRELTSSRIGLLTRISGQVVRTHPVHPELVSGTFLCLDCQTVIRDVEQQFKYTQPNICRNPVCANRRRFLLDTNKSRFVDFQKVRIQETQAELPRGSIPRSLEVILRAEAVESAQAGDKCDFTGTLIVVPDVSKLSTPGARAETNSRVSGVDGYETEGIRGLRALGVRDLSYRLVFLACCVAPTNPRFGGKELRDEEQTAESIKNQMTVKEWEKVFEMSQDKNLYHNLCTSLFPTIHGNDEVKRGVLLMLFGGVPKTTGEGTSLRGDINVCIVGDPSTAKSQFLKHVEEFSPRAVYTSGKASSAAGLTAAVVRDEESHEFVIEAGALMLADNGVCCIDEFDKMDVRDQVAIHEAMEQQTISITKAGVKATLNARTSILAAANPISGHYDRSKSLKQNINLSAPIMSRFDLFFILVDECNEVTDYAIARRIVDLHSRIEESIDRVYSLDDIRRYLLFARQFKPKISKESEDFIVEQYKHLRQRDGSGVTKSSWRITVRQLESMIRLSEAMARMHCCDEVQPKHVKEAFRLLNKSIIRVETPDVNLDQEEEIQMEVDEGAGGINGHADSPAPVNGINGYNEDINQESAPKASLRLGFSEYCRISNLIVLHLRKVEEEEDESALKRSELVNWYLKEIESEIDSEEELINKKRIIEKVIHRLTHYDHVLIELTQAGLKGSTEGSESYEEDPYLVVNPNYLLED

Chain of DNA replication licensing factor MCM2 (Homo sapiens) (P49736 whole entry): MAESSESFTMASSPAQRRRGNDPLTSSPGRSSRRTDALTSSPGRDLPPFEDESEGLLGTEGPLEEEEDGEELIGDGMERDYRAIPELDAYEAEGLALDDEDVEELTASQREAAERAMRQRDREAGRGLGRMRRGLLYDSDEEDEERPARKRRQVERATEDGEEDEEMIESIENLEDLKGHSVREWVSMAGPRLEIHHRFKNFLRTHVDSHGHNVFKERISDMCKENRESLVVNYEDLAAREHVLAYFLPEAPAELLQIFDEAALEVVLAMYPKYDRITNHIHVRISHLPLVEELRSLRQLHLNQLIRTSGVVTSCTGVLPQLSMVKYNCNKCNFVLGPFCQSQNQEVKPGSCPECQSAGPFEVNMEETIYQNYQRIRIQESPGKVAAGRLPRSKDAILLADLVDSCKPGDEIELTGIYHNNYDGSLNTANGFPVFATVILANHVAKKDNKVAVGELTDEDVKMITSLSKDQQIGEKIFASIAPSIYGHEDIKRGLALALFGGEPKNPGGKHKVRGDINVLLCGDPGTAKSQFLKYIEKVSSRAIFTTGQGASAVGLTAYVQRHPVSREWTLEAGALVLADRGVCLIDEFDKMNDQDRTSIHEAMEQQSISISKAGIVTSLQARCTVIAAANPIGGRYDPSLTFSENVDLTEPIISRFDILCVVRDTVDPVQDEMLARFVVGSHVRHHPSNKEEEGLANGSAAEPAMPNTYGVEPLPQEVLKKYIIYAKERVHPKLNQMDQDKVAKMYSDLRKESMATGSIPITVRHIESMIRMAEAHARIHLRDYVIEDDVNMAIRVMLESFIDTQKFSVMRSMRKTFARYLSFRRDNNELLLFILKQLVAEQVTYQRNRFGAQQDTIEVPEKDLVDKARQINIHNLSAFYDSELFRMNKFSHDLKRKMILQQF
Chain of DNA replication licensing factor MCM7 (Homo sapiens) (P33993 whole entry): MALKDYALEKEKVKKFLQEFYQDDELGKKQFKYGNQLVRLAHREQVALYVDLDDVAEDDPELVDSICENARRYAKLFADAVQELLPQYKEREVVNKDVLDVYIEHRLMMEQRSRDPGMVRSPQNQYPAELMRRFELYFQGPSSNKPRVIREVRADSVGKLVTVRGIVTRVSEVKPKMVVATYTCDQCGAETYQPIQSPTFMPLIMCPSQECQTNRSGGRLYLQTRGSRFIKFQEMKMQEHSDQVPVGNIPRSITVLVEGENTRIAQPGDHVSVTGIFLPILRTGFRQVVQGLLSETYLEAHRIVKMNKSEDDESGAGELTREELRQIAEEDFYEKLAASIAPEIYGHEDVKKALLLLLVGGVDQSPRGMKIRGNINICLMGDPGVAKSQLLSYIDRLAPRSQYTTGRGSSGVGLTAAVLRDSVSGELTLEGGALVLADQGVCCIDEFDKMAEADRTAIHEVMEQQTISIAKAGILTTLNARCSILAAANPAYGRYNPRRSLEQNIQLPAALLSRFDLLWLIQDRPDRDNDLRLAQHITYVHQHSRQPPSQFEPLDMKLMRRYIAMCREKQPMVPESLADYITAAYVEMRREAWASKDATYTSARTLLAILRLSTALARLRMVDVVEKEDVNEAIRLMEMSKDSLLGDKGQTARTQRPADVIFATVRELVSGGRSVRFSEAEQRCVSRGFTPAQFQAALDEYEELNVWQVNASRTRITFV

Cc1oc2c(c1C(=O)NCCCn1ccnc1)C(=O)c1ccccc1C2=O
Activity [1]: Active | Activity [2]: 1.1 | Activity [3]: 0.7 | Activity (NCI-H1975 [4]): Active | Activity [5]: Non-Toxic | IC50 [6]: < 0.1 µM | Activity (NCI-H1975 [7]): 48.8 | Activity [8]: Active | Activity [9]: 0.5
